Data on 15 compounds can be found in US20230382940A1, “ANTIVIRAL COMPOUNDS AND METHODS OF MAKING AND USING THE SAME” (Gilead Sciences, Inc., priority 2022, published 2023).

Experiment [1] concerns Human Rhinovirus 1B (HRV1B). Kind of experiment: H1-HeLa HRV-CTG 384-well assay, HRV1B, Example X. It counts as cell-based. Particulars: Rhinovirus A, 96 h; H1-HeLa cells, HRV1B MOI 0.5, 4 days, Celltiter-Glo; read-out: EC50 H1-HeLa_HRV 1B_HRV-CTG 384-well Assay (per Ex. X). The text has this:
Example X: H1-HeLa HRV-CTG 384-Well Assay
H1-Hela cell line (ATCC, Manassas, VA, Cat #CRL-1958) was maintained in Dulbecco's […] (DMEM) (Corning, New York, NY, Cat #15-018CM) supplemented with 10% fetal bovine serum (FBS) (Hyclone, Logan, UT, Cat #SH30071-03), and 1× Penicillin-Streptomycin-L-Glutamine (Corning, New York, NY, Cat #30-009-CI). Cells were passaged 2 times per week to maintain sub-confluent densities and were used for experiments at passage 5-30. The Human Rhinovirus 1B (HRV1B) (ATCC, Manassas, VA, Cat #VR-1645), Human Rhinovirus 14 (HRV14) (ATCC, Manassas, VA, Cat #VR-284), and Human Rhinovirus 16 (HRV16) (ATCC, Manassas, VA, Cat #BR-283) was obtained through ATCC. Viral infection was monitored by determining viability of H1-HeLa cells as described below.
Test molecules are prepared in 100% DMSO in 384-well polypropylene plates (Greiner, Monroe, NC, Cat #784201) with 8 compounds per plate in grouped replicates of 4 at 10 serially diluted concentrations (1:3). The serially diluted compounds were transferred to low dead volume Echo plates (Labcyte, Sunnyvale, CA, Cat #LP-0200).
The test compounds were spotted to 384-well assay plates (Greiner, Monroe, NC, Cat #781091) at 200 nL per well using an Echo acoustic dispenser (Labcyte, Sunnyvale, CA). H1-HeLa cells were harvested and suspended in DMEM (supplemented with 2% FBS and 1× Penicillin-Streptomycin-L-Glutamine) and seeded to the pre-spotted assay plates at 5,000 cells per well in 30 μL. HRV1B, HRV14, and HRV16 was diluted in DMEM (supplemented with 2% FBS and 1× Penicillin-Streptomycin-L-Glutamine) at 97.1 million Infectious Units (IU) per mL, 151 million IU per mL and 221 million IU per mL respectively. 10 μL of virus per well was added to the assay plates containing cells and compounds, for an MOI of 0.5, 1.0, and 0.25 respectively. The assay plates were incubated for 4 days at 37° C. and 5% CO2. At the end of incubation, Celltiter-Glo (Promega, Madison, WI, Cat #G7573) was prepared. The assay plates and Celltiter-Glo reagent were equilibrated to room temperature for at least 15 minutes. 40 μL per well of Celltiter-Glo reagent was added and the plates were incubated at room temperature for 15 minutes before reading the luminescence signal on an EnVision multimode plate reader (Perkin Elmer, Waltham, MA). Rupintrivir was used as positive control and DMSO was used as negative control. Values were normalized to the positive and negative controls (as 0% and 100% replication, respectively) and data was fitted using non-linear regression analysis by Gilead's dose response tool. The EC50 value for each compound was defined as the concentration reducing viral replication by 50%.

Experiment [2] deals with Respiratory syncytial virus recombinant with luciferase (RSV-Luc5). The experiment can be described thus: HEp-2 RSV-Luc5 384-well assay (EC50 RSVFLUC Hep2-384 v2), Example V. It counts as cell-based. The note with it: human respiratory syncytial virus, HEp-2, 72 h, read-out: EC50 RSV FLuc Hep-2 384 V2 (per Ex. V). The text has this: Example V: HEp-2 RSV-Luc5 384-Well Assay (EC50 RSVFLUC Hep2-384 v2)
HEp-2 cell line was purchased from ATCC (Manassas, VA Cat #CCL-23) and maintained in Dulbecco's […] (DMEM) (Corning, New York, NY, Cat #15-018CM) supplemented with 10% fetal bovine serum (FBS) (Hyclone, Logan, UT, Cat #SH30071-03) and 1× Penicillin-Streptomycin-L-Glutamine (Corning, New York, NY, Cat #30-009-C1). Cells were passaged 2 times per week to maintain sub-confluent densities and were used for experiments at passage 5-20. Respiratory syncytial virus recombinant with luciferase (RSV-Luc5) (≥1×107 TCID50/ml) was purchased from Microbiologics (Saint Cloud, MN). Viral replication was determined in HEp-2 cells in the following manner.
Compounds are prepared in 100% DMSO in 384-well polypropylene plates (Greiner, Monroe, NC, Cat #784201) with 8 compounds per plate in grouped replicates of 4 at 10 serially diluted concentrations (1:3). The serially diluted compounds were transferred to low dead volume Echo plates (Labcyte, Sunnyvale, CA, Cat #LP-0200).
The test compounds were spotted to 384-well assay plates (Greiner, Monroe, NC, Cat #781091) at 200 nL per well. HEp-2 cells were harvested and suspended in DMEM (supplemented with 10% FBS and 1× Penicillin-Streptomycin-L-Glutamine) and seeded to the pre-spotted assay plates at 4,000 cells per well in 30 μL. RSV-Luc5 viruses were diluted in DMEM (supplemented with 10% FBS and 1× Penicillin-Streptomycin-L-(Glutamine) at 200,000 Infectious Units (IU) per mL and 10 μL per well was added to the assay plates containing cells and compounds, for an MOI=0.5. The assay plates were incubated for 3 days at 37° C. and 5% CO2. At the end of incubation, One-Glo reagent (Promega, Madison, WI, Cat #E6120) was prepared. The assay plates and One-Glo reagent were equilibrated to room temperature for at least 15 minutes. 40 μL per well of One-Glo reagent was added and the plates were incubated at room temp for 15 minutes before reading the luminescence signal on an EnVision multimode plate reader (Perkin Elmer, Waltham, MA). Remdesivir was used as positive control and DMSO was used as negative control. Values were normalized to the positive and negative controls (as 0% and 100% replication, respectively) and data was fitted using non-linear regression analysis by Gilead's dose response tool. The EC50 value for each compound was then determined as the concentration reducing the viral replication by 50%.

Regarding `N#C[C@]1(COC(=O)OC2CCC2)O[C@@H](c2ccc3c(N)ncnn23)[C@H](O)[C@@H]1O` [Compound 17, ((2R,3S,4R,5S)-5-(4-aminopyrrolo[2,1-f][1,2,4]triazin-7-yl)-2-cyano-3,4-dihydroxytetrahydrofuran-2-yl)methyl cyclobutyl carbonate], the results for the concentration for a half-maximal effect (EC50) in experiment [1] and in experiment [2] were 6.08 µM and 24.9 µM, respectively.

As for `CCCCCCOC(=O)OC[C@@]1(C#N)O[C@@H](c2ccc3c(N)ncnn23)[C@H](O)[C@@H]1O` [Compound 19, ((2R,3S,4R,5S)-5-(4-aminopyrrolo[2,1-f][1,2,4]triazin-7-yl)-2-cyano-3,4-dihydroxytetrahydrofuran-2-yl)methyl hexyl carbonate], the EC50 is 3.57 µM in experiment [1] and 13.6 µM in experiment [2].

In the case of `CCCCCOC(=O)OC[C@@]1(C#N)O[C@@H](c2ccc3c(N)ncnn23)[C@H](O)[C@@H]1O` [Compound 20, ((2R,3S,4R,5S)-5-(4-aminopyrrolo[2,1-f][1,2,4]triazin-7-yl)-2-cyano-3,4-dihydroxytetrahydrofuran-2-yl)methyl pentyl carbonate], the EC50 turned out to be 4.69 µM in experiment [1] and 13.7 µM in experiment [2].

`N#C[C@]1(COC(=O)OC2CCCCC2)O[C@@H](c2ccc3c(N)ncnn23)[C@H](O)[C@@H]1O` [Compound 21, ((2R,3S,4R,5S)-5-(4-aminopyrrolo[2,1-f][1,2,4]triazin-7-yl)-2-cyano-3,4-dihydroxytetrahydrofuran-2-yl)methyl cyclohexyl carbonate]: the half-maximal effective concentration (EC50) in experiment [1] is 7.87 µM; in experiment [2], 21.9 µM.

For the compound `CCOC(=O)OC[C@@]1(C#N)O[C@@H](c2ccc3c(N)ncnn23)[C@H](O)[C@@H]1O` [Compound 22, ((2R,3S,4R,5S)-5-(4-aminopyrrolo[2,1-f][1,2,4]triazin-7-yl)-2-cyano-3,4-dihydroxytetrahydrofuran-2-yl)methyl ethyl carbonate], the EC50 was determined as 9.8 µM in experiment [1] and 26.3 µM in experiment [2].

Regarding `N#C[C@]1(COC(=O)OC2CC2)O[C@@H](c2ccc3c(N)ncnn23)[C@H](O)[C@@H]1O` [Compound 23, ((2R,3S,4R,5S)-5-(4-aminopyrrolo[2,1-f][1,2,4]triazin-7-yl)-2-cyano-3,4-dihydroxytetrahydrofuran-2-yl)methyl cyclopropyl carbonate], the EC50 in experiment [1] turned out to be 5.32 µM; in experiment [2], 15.4 µM.

For the compound `N#C[C@]1(COC(=O)O[C@@H]2CCOC2)O[C@@H](c2ccc3c(N)ncnn23)[C@H](O)[C@@H]1O` [Compound 24, ((2R,3S,4R,5S)-5-(4-aminopyrrolo[2,1-f][1,2,4]triazin-7-yl)-2-cyano-3,4-dihydroxytetrahydrofuran-2-yl)methyl ((R)-tetrahydrofuran-3-yl) carbonate], the results for the EC50 in experiment [1] and in experiment [2] were 6.75 µM and 29.5 µM, respectively.

Take `CC[C@H](C)COC(=O)OC[C@@]1(C#N)O[C@@H](c2ccc3c(N)ncnn23)[C@H](O)[C@@H]1O` [Compound 28, ((2R,3S,4R,5S)-5-(4-aminopyrrolo[2,1-f][1,2,4]triazin-7-yl)-2-cyano-3,4-dihydroxytetrahydrofuran-2-yl)methyl ((S)-2-methylbutyl) carbonate]: the EC50 in experiment [1] is 3.53 µM; in experiment [2], 18.2 µM.

For the compound `N#C[C@]1(COC(=O)OCc2ccccc2)O[C@@H](c2ccc3c(N)ncnn23)[C@H](O)[C@@H]1O` [Compound 29, ((2R,3S,4R,5S)-5-(4-aminopyrrolo[2,1-f][1,2,4]triazin-7-yl)-2-cyano-3,4-dihydroxytetrahydrofuran-2-yl)methyl benzyl carbonate], the EC50 in experiment [1] turned out to be 3.26 µM; in experiment [2], 19.6 µM.

Regarding `N#C[C@]1(COC(=O)OCC2CCCC2)O[C@@H](c2ccc3c(N)ncnn23)[C@H](O)[C@@H]1O` [Compound 30, ((2R,3S,4R,5S)-5-(4-aminopyrrolo[2,1-f][1,2,4]triazin-7-yl)-2-cyano-3,4-dihydroxytetrahydrofuran-2-yl)methyl (cyclopentylmethyl) carbonate], the values for the EC50 in experiment [1] and in experiment [2] were 3.12 µM and 23 µM, respectively.

Regarding `CCC(CC)COC(=O)OC[C@@]1(C#N)O[C@@H](c2ccc3c(N)ncnn23)[C@H](O)[C@@H]1O` [Compound 31, ((2R,3S,4R,5S)-5-(4-aminopyrrolo[2,1-f][1,2,4]triazin-7-yl)-2-cyano-3,4-dihydroxytetrahydrofuran-2-yl)methyl (2-ethylbutyl) carbonate], the values for the EC50 in experiment [1] and in experiment [2] were 3.16 µM and 20.3 µM, respectively.

For `N#C[C@]1(COC(=O)OCC2CC2)O[C@@H](c2ccc3c(N)ncnn23)[C@H](O)[C@@H]1O` [Compound 32, ((2R,3S,4R,5S)-5-(4-aminopyrrolo[2,1-f][1,2,4]triazin-7-yl)-2-cyano-3,4-dihydroxytetrahydrofuran-2-yl)methyl (cyclopropylmethyl) carbonate], the half-maximal effective concentration (EC50) in experiment [1] was 5.69 µM; in experiment [2] it was 20.6 µM.

On to `N#C[C@]1(COC(=O)O[C@H]2CCOC2)O[C@@H](c2ccc3c(N)ncnn23)[C@H](O)[C@@H]1O` [Compound 33, ((2R,3S,4R,5S)-5-(4-aminopyrrolo[2,1-f][1,2,4]triazin-7-yl)-2-cyano-3,4-dihydroxytetrahydrofuran-2-yl)methyl ((S)-tetrahydrofuran-3-yl) carbonate], for which the EC50 in experiment [1] was 8.7 µM; in experiment [2], 25.1 µM.

Regarding `CCCOCCOC(=O)OC[C@@]1(C#N)O[C@@H](c2ccc3c(N)ncnn23)[C@H](O)[C@@H]1O` [Compound 34, ((2R,3S,4R,5S)-5-(4-aminopyrrolo[2,1-f][1,2,4]triazin-7-yl)-2-cyano-3,4-dihydroxytetrahydrofuran-2-yl)methyl (2-propoxyethyl) carbonate], the half-maximal effective concentration (EC50) came to 7.31 µM in experiment [1] and 17.6 µM in experiment [2].

Take `CC(C)(C)CCOC(=O)OC[C@@]1(C#N)O[C@@H](c2ccc3c(N)ncnn23)[C@H](O)[C@@H]1O` [Compound 35, ((2R,3S,4R,5S)-5-(4-aminopyrrolo[2,1-f][1,2,4]triazin-7-yl)-2-cyano-3,4-dihydroxytetrahydrofuran-2-yl)methyl (3,3-dimethylbutyl) carbonate]: the half-maximal effective concentration (EC50) in experiment [1] came out at 8.63 µM; in experiment [2], 18.9 µM.
